# Assays:
# K562 (BCR-ABL+) cells = assay: CCK-8 proliferation inhibition, K562 cells; type: cell-based, human; conditions: Homo sapiens, K562, 48 h, CCK-8, 48 hours of drug treatment; read-out: Proliferative inhibitory activity (IC50, nM) K562 (BCR-ABL+);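 note: Ten-point threefold dilution series starting at 10 µM, absorbance at 450 nm after 2 h with CCK-8, DMSO as negative control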
# U937 (BCR-ABL-) cells = assay: CCK-8 proliferation inhibition, U937 cells; type: cell-based, human; conditions: Homo sapiens, U-937; CCK-8, 48 hours of drug treatment, highest concentration 10 μM; read-out: Proliferative inhibitory activity (IC50, nM) U937 (BCR-ABL-);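 note: Ten-point threefold dilution series, absorbance at 450 nm after 2 h with CCK-8 reagent, DMSO as negative control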
# HEK293 (BCR-ABL-) cells = assay: CCK-8 proliferation inhibition, HEK293 cells; conditions: Homo sapiens, HEK293, 48 h, read-out: Proliferative inhibitory activity (IC50, nM) HEK293 (BCR-ABL-);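 note: Ten-point threefold dilution series starting at 10 µM, CCK-8 absorbance at 450 nm read after 2 h reagent incubation, DMSO-treated cells as negative control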
# c-ABL protein = c-ABL protein (Homo sapiens, UniProt P00519); assay: Western blot degradation of c-ABL in K562 cells; type: cell-based; set-up: Western blot was used to detect the expression of BCR-ABL and c-ABL protein in K562 cells; endogenous in cells; host or cells: K562; conditions: 16 hours, 1 nM-10 μM
# Method: (§1) (1) Cell seed: K562 cells were added to the 24 well plates, with a cell density of 3×10^5/ml and a total volume of 1.5 ml; Five concentration gradients, 1 nm, 10 nm, 100 nm, 1 μM, and 10 μM, were respectively set for PROTAD series compounds and comparative examples compounds (Dasa-6-2-2-6-VHL, Dasa-6-2-6-CRBN). […] After 16 hours of drug treatment, the cells were collected in 1.5 ml ep tube, centrifuged at 3000 rpm for 3 minutes, and then added 30 μL PBS and 30 ul 2×SDS to cell precipitated, lysate Heat at 100° C. for 5 minutes, then place on ice for 5 minutes, centrifuged at 10000 rpm for 5 minutes, and take the supernatant as the total protein extracted. The protein concentration was determined by the Bradford method. After each sample was at the same concentration, bromophenol blue was added as the sample indicator.
# (§2) (2) Electrophoresis: the starting voltage of the BioRad electrophoresis instrument was 80V, and as the dye enters the separation gel, the voltage was adjusted to 120V;
# (§3) (3) Film transfer: prepare filter paper and nitrocellulose membrane with the corresponding size of the gel, filter paper, and NC film were soaked in transfer electrophoresis buffer.
# (§4) DC50 (concentration required to degrade protein by half) were calculated based on the intensity from western blot, and data were analyzed via Prism GraphPad with non-linear regression.
# BCR-ABL protein = BCR-ABL protein (Homo sapiens, UniProt P00519); assay: Western blot degradation of BCR-ABL in K562 cells; type: cell-based; set-up: Western blot was used to detect the expression of BCR-ABL and c-ABL protein in K562 cells; BCR (fusion partner, P11274); endogenous in cells; host or cells: K562; the other entry of the earlier key: BCR (P11274, Breakpoint cluster region protein); conditions: 16 hours, 1 nM-10 μM
# Method: as §1, §2, §3, §4
# Chain of c-ABL protein (P00519 whole entry): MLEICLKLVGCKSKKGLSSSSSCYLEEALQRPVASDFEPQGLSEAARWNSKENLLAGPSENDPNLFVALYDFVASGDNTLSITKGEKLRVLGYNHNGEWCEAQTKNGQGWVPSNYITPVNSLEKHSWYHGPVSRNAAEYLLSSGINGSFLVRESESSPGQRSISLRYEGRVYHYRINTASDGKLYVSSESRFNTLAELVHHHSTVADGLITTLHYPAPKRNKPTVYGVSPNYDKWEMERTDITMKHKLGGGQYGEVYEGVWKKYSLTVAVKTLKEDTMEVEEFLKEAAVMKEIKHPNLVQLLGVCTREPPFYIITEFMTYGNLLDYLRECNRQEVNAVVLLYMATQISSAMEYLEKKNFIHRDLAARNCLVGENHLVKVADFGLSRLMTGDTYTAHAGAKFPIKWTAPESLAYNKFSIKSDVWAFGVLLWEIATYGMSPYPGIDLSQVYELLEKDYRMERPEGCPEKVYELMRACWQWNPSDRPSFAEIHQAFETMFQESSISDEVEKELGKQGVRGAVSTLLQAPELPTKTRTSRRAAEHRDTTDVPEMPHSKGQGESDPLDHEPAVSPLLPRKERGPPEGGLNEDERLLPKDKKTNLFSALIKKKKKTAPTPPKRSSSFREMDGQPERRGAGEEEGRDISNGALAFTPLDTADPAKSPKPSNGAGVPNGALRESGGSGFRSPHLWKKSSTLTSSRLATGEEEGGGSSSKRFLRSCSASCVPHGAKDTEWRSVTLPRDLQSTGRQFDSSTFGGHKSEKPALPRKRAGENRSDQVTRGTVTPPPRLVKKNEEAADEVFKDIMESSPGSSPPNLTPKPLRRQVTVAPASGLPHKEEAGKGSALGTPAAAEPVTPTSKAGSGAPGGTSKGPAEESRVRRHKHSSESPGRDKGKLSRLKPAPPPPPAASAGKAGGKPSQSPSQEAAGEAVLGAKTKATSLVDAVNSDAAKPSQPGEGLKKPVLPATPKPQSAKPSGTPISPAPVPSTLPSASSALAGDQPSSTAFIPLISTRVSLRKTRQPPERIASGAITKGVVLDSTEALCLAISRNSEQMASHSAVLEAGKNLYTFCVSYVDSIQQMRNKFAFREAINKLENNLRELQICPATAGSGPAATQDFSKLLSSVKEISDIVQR
# Chain of BCR-ABL protein (P00519 with tags, fused parts or gaps): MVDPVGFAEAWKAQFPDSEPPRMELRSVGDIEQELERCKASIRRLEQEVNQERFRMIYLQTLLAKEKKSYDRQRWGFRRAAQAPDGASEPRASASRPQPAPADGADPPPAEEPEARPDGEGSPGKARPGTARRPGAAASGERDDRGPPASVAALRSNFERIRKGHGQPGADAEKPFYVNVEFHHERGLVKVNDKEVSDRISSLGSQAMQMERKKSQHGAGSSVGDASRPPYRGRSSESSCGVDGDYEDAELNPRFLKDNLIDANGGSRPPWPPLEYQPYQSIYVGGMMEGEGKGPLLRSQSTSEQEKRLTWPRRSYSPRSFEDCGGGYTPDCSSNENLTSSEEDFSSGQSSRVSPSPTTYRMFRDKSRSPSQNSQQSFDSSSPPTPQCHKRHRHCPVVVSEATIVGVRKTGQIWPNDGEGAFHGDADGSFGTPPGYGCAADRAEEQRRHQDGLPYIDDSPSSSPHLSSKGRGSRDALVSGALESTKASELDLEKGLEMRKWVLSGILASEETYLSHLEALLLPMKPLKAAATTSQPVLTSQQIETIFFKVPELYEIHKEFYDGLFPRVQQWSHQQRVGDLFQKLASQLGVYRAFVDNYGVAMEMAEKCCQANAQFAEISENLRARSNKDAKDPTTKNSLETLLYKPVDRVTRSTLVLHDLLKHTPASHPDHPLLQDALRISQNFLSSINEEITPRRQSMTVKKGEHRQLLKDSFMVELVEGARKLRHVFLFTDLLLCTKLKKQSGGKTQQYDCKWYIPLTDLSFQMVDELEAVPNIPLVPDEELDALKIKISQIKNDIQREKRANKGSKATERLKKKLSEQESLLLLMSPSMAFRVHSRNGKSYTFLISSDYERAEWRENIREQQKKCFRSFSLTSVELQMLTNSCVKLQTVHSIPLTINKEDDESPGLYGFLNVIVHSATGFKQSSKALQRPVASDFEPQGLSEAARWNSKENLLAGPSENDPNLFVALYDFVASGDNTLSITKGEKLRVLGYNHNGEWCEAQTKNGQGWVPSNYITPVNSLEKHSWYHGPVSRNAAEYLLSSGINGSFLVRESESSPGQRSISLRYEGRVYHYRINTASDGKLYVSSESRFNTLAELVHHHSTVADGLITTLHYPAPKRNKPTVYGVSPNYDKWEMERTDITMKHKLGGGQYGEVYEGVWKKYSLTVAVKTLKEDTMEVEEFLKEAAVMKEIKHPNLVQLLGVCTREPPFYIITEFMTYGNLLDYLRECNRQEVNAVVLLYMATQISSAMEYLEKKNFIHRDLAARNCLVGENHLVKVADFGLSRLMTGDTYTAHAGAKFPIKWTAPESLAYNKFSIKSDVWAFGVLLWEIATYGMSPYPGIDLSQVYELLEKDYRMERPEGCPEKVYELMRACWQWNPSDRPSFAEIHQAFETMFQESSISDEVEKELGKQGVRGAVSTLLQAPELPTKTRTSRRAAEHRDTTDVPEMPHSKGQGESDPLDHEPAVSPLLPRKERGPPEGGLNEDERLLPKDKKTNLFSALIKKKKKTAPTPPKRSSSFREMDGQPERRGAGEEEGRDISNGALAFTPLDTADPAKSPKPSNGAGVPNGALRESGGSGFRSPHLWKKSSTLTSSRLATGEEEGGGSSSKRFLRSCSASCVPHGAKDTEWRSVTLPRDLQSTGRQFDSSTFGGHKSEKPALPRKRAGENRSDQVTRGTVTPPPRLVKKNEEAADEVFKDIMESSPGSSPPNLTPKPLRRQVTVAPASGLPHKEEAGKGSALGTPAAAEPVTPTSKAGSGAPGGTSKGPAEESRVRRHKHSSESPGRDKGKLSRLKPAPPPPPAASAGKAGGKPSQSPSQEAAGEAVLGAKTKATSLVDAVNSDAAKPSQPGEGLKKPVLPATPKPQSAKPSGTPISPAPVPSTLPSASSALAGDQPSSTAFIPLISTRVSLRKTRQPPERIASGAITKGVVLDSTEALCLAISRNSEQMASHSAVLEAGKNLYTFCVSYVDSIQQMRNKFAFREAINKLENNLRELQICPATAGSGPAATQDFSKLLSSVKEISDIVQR
IC50 (K562 (BCR-ABL+) cells),IC50 (U937 (BCR-ABL-) cells),DC50 (c-ABL protein),DC50 (BCR-ABL protein),SMILES,IC50 (HEK293 (BCR-ABL-) cells)
7 nM,> 10000 nM,1 to 10 nM,1 to 10 nM,"Cc1nc(Nc2ncc(C(=O)Nc3c(C)cccc3Cl)s2)cc(N2CCN(C(=O)COc3cccc4c3C(=O)N(C3CCC(=O)NC3=O)C4=O)CC2)n1 (stereo not drawn) [SIAIS184128, N-(2-chloro-6-methylphenyl)-2-((6-(4-(2-((2-(2,6-dioxopiperidin-3-yl)-1,3-dioxoisoindolin-4-yl)oxy)acetyl)piperazin-1-yl)-2-methylpyrimidin-4-yl)amino)thiazole-5-carboxamide]",> 10000 nM
16.5 nM,> 10000 nM,10 to 100 nM,10 to 100 nM,"Cc1nc(Nc2ncc(C(=O)Nc3c(C)cccc3Cl)s2)cc(N2CCN(C(=O)CCCC(=O)Nc3cccc4c3C(=O)N(C3CCC(=O)NC3=O)C4=O)CC2)n1 (stereo not drawn) [SIAIS184053, N-(2-chloro-6-methylphenyl)-2-((6-(4-(5-((2-(2,6-dioxopiperidin-3-yl)-1,3-dioxoisoindolin-4-yl)amino)-5-oxopentanoyl)piperazin-1-yl)-2-methylpyrimidin-4-yl)amino)thiazole-5-carboxamide]",> 10000 nM
77.6 nM,> 10000 nM,1 to 10 nM,1 to 10 nM,"COc1cc(Nc2c(C#N)cnc3cc(OCCCN4CCN(C(=O)CCC(=O)NCCNc5cccc6c5C(=O)N(C5CCC(=O)NC5=O)C6=O)CC4)c(OC)cc23)c(Cl)cc1Cl (stereo not drawn) [SIAIS164136, 4-(4-(3-((3-cyano-4-((2,4-dichloro-5-methoxyphenyl)amino)-6-methoxyquinolin-7-yl)oxy)propyl)piperazin-1-yl)-N-(2-((2-(2,6-dioxopiperidin-3-yl)-1,3-dioxoisoindolin-4-yl)amino)ethyl)-4-oxobutanamide]",> 10000 nM
459 nM,> 10000 nM,10 to 100 nM,10 to 100 nM,"COc1cc(Nc2c(C#N)cnc3cc(OCCCN4CCN(C(=O)CCC(=O)Nc5cccc6c5CN(C5CCC(=O)NC5=O)C6=O)CC4)c(OC)cc23)c(Cl)cc1Cl (stereo not drawn) [SIAIS164105, 4-(4-(3-((3-cyano-4-((2,4-dichloro-5-methoxyphenyl)amino)-6-methoxyquinolin-7-yl)oxy)propyl)piperazin-1-yl)-N-(2-(2,6-dioxopiperidin-3-yl)-1-oxoisoindolin-4-yl)-4-oxobutanamide]",> 10000 nM
4.2 nM,> 10000 nM,10 to 100 nM,1 to 10 nM,"Cc1nc(Nc2ncc(C(=O)Nc3c(C)cccc3Cl)s2)cc(N2CCN(C(=O)CCCCNc3cccc4c3CN(C3CCC(=O)NC3=O)C4=O)CC2)n1 (stereo not drawn) [SIAIS184052, N-(2-chloro-6-methylphenyl)-2-((6-(4-(5-((2-(2,6-dioxopiperidin-3-yl)-1-oxoisoindolin-4-yl)amino)pentanoyl)piperazin-1-yl)-2-methylpyrimidin-4-yl)amino)thiazole-5-carboxamide]",> 10000 nM
1.03 nM,> 10000 nM,10 to 100 nM,10 to 100 nM,"Cc1nc(Nc2ncc(C(=O)Nc3c(C)cccc3Cl)s2)cc(N2CCN(C(=O)CCCC(=O)Nc3cccc4c3CN(C3CCC(=O)NC3=O)C4=O)CC2)n1 (stereo not drawn) [SIAIS164110, N-(2-chloro-6-methylphenyl)-2-((6-(4-(5-((2-(2,6-dioxopiperidin-3-yl)-1-oxoisoindolin-4-yl)amino)-5-oxopentanoyl)piperazin-1-yl)-2-methylpyrimidin-4-yl)amino)thiazole-5-carboxamide]",> 10000 nM

# Continued, compound first:
SMILES,IC50 (K562 (BCR-ABL+) cells),IC50 (U937 (BCR-ABL-) cells),DC50 (c-ABL protein),DC50 (BCR-ABL protein),IC50 (HEK293 (BCR-ABL-) cells)
"Cc1nc(Nc2ncc(C(=O)Nc3c(C)cccc3Cl)s2)cc(N2CCN(C(=O)CCOCCNc3cccc4c3C(=O)N(C3CCC(=O)NC3=O)C4=O)CC2)n1 (stereo not drawn) [SIAIS151063, N-(2-chloro-6-methylphenyl)-2-((6-(4-(3-(2-((2-(2,6-dioxopiperidin-3-yl)-1,3-dioxoisoindolin-4-yl)amino)ethoxy)propanoyl)piperazin-1-yl)-2-methylpyrimidin-4-yl)amino)thiazole-5-carboxamide]",2.7 nM,276 nM,1 to 10 nM,1 to 10 nM,972 nM
"COc1cc(Nc2c(C#N)cnc3cc(OCCCN4CCN(C(=O)CCCNc5cccc6c5C(=O)N(C5CCC(=O)NC5=O)C6=O)CC4)c(OC)cc23)c(Cl)cc1Cl (stereo not drawn) [SIAIS151162, 4-((2,4-dichloro-5-methoxyphenyl)amino)-7-(3-(4-(4-((2-(2,6-dioxopiperidin-3-yl)-1,3-dioxoisoindolin-4-yl)amino)butanoyl)piperazin-1-yl)propoxy)-6-methoxyquinoline-3-carbonitrile]",712 nM,> 10000 nM,10 to 100 nM,10 to 100 nM,> 10000 nM
"Cc1nc(Nc2ncc(C(=O)Nc3c(C)cccc3Cl)s2)cc(N2CCN(C(=O)CCCCCCCCC(=O)N[C@H](C(=O)N3C[C@H](O)C[C@H]3C(=O)NCc3ccc(-c4scnc4C)cc3)C(C)(C)C)CC2)n1 [SIAIS151180, N-(2-chloro-6-methylphenyl)-2-((6-(4-(10-(((S)-1-((2S,4R)-4-hydroxy-2-((4-(4-methylthiazol-5-yl)benzyl)carbamoyl)pyrrolidin-1-yl)-3,3-dimethyl-1-oxobutan-2-yl)amino)-10-oxodecanoyl)piperazin-1-yl)-2-methylpyrimidin-4-yl)amino)thiazole-5-carboxamide]",14.3 nM,> 10000 nM,10 to 100 nM,1 to 10 nM,> 10000 nM
"Cc1nc(Nc2ncc(C(=O)Nc3c(C)cccc3Cl)s2)cc(N2CCN(C(=O)CCCCCNc3cccc4c3C(=O)N(C3CCC(=O)NC3=O)C4=O)CC2)n1 (stereo not drawn) [SIAIS151075, N-(2-chloro-6-methylphenyl)-2-((6-(4-(6-((2-(2,6-dioxopiperidin-3-yl)-1,3-dioxoisoindolin-4-yl)amino)hexanoyl)piperazin-1-yl)-2-methylpyrimidin-4-yl)amino)thiazole-5-carboxamide]",0.03 nM,> 10000 nM,1 to 10 nM,1 to 10 nM,> 10000 nM
"COc1cc(Nc2c(C#N)cnc3cc(OCCCN4CCN(C(=O)CCOCCOCCNc5cccc6c5C(=O)N(C5CCC(=O)NC5=O)C6=O)CC4)c(OC)cc23)c(Cl)cc1Cl (stereo not drawn) [SIAIS151158, 4-((2,4-dichloro-5-methoxyphenyl)amino)-7-(3-(4-(3-(2-(2-((2-(2,6-dioxopiperidin-3-yl)-1,3-dioxoisoindolin-4-yl)amino)ethoxy)ethoxy)propanoyl)piperazin-1-yl)propoxy)-6-methoxyquinoline-3-carbonitrile]",3130 nM,> 10000 nM,10 to 100 nM,10 to 100 nM,> 10000 nM
"Cc1nc(Nc2ncc(C(=O)Nc3c(C)cccc3Cl)s2)cc(N2CCN(C(=O)CCCCC(=O)N[C@H](C(=O)N3C[C@H](O)C[C@H]3C(=O)NCc3ccc(-c4scnc4C)cc3)C(C)(C)C)CC2)n1 [SIAIS151176, N-(2-chloro-6-methylphenyl)-2-((6-(4-(6-(((S)-1-((2S,4R)-4-hydroxy-2-((4-(4-methylthiazol-5-yl)benzyl)carbamoyl)pyrrolidin-1-yl)-3,3-dimethyl-1-oxobutan-2-yl)amino)-6-oxohexanoyl)piperazin-1-yl)-2-methylpyrimidin-4-yl)amino)thiazole-5-carboxamide]",89 nM,> 10000 nM,100 to 1000 nM,10 to 100 nM,> 10000 nM

# From patent publication US11639343B2, “Compounds targeting and degrading BCR-ABL protein and its antitumor application” (ShanghaiTech University, priority 2019, dated 2023)
